{
  "source": "paper PMC12285096",
  "about": "“Tirzepatide mitigates Stroke-Induced Blood-Brain barrier disruption by modulating Claudin-1 and C/EBP-α pathways” (Molecular Medicine, 2025)",
  "key": {"[1]": {"test_system": "Claudin-1", "assay": "Claudin-1 expression in OGD/R-stimulated HBMVECs (real-time PCR, western blot)", "assay_type": "cell-based, human", "conditions": "for Claudin-1 expressions (mRNA): sh-C/EBP-α experiment, Fig. 9D", "protocol": "1 mL of RNAiso Plus solution was added to the pulverized rodent cerebral cortex samples or cellular material. Following complete homogenization, the liquid fraction was extracted after high-speed centrifugation. The overall RNA pellet was then washed with 75% ethanol, and the RNA was subsequently harvested for reverse transcription. These specific procedures were carried out in accordance with the instructions provided in the PrimeScript RT reagent Kit (TaKaRa, Japan). Real-time PCR detection was performed following the experimental protocols of the Applied Biosystems 7300 instrument. Gene expression levels were determined based on cycle threshold counts. Claudin-1 and C/EBP-α were analyzed in brain homogenates (right hemisphere: Sham, MCAO, MCAO + TZP) and HBMVECs (Control, […] lysis solution, composed of 1% protease inhibitor in RIPA buffer (Sigma-Aldrich, R0278), was introduced to samples, which were homogenized over ice for 30 min. The homogenate was centrifuged at 13,500 rpm for 10 min at 4 °C. Protein was quantified using the BCA assay kit (Sigma-Aldrich, BCA1), and 50 μg protein/lane was separated on 10% SDS-PAGE and transferred to PVDF in electrophoresis buffer at 200 mA for 2 h. The membrane was blocked with 5% skim milk in TBST for 1 h. Primary antibodies were incubated overnight at 4 °C: Claudin-1 (1:1000, Abcam, ab15098), C/EBP-α (1:1000, Santa Cruz Biotechnology, sc-166258), and GAPDH (1:2000, Sigma-Aldrich, A5441). HRP-conjugated secondary antibodies (1:5000, Santa Cruz, sc-2357) were incubated for 1 h. Bands were detected via ECL (Bio-Rad, 1705061), quantified with ImageJ, and normalized to GAPDH. HBMVECs were sourced from ATCC (USA). These cells were cultivated in a medium specifically designed for endothelial cultures, enriched with 10% FBS, and maintained in an incubator set at a temperature of 37 °C with 5% CO2. For OGD/R modeling, the culture medium was replaced with a serum-free, glucose-free medium, and then it was placed in a hypoxic environment (1% O2, 5% CO2, 94% N2) at a 37 °C incubator for 10 h. […]"}, "[2]": {"test_system": "MCAO mice", "assay": "Behavioral toxicity observation in the MCAO model", "conditions": "TZP 10 nmol/kg i.p. weekly"}, "[3]": {"test_system": "HBMVECs", "assay": "TEER of OGD/R-challenged HBMVECs", "assay_type": "cell-based, human", "protocol": "HBMVECs were sourced from ATCC (USA). These cells were cultivated in a medium specifically designed for endothelial cultures, enriched with 10% FBS, and maintained in an incubator set at a temperature of 37 °C with 5% CO2. For OGD/R modeling, the culture medium was replaced with a serum-free, glucose-free medium, and then it was placed in a hypoxic environment (1% O2, 5% CO2, 94% N2) at a 37 °C incubator for 10 h. After 10 h, the normal medium containing serum was added, and the normal oxygen supply was restored. The cells were then kept in a 37 °C constant temperature incubator for 24 h of reoxygenation. To silence C/EBP-α, HBMVECs were transduced with adenovirus harboring a short hairpin RNA (shRNA) specifically designed to knock down C/EBP-α (Ad-viral sh-C/EBP-α) for 48 h. Approximately 100,000 cells were nurtured in the upper section of the Transwell device. Once the cells had bonded to the container surfaces, TEER values across each group were determined utilizing an impedance meter (Millipore, United States) after 24 h."}, "[4]": {"assay": "in vivo", "conditions": "mouse, ip, 10 nmol/kg", "protocol": "TZP concentrations were measured in plasma and brain from Sham, TZP, MCAO, and MCAO + TZP groups (n = 6 per group) after 8 weeks of treatment (TZP: 10 nmol/kg, saline: 0.1 mL, i.p., weekly). At 24 h post-final dose, mice were anesthetized (xylazine 8 mg/kg, ketamine 140 mg/kg, i.p.). Plasma was collected via cardiac puncture (0.5 mL, heparinized tubes) and centrifuged (3,000 × g, 10 min, 4 °C). The right cerebral hemisphere was harvested, rinsed in cold saline, weighed, and homogenized in 1 mL PBS with 1% protease inhibitor. Homogenates were centrifuged (10,000 × g, 15 min, 4 °C). TZP was quantified by LC-MS/MS using a Shimadzu LC-20AD system and AB Sciex QTRAP 5500. Samples were diluted 1:10 in acetonitrile with internal standard (semaglutide-d6, 10 ng/mL), separated on a C18 column (2.1 × 100 mm, 1.8 μm), and detected via multiple reaction monitoring (MRM). Calibration curves (0.1–100 ng/mL, r² > 0.99) ensured linearity. Kp, brain was calculated as [TZP]brain (ng/mL, converted from ng/g)/[TZP]plasma (ng/mL). Sham and MCAO groups (no TZP) served as controls. Liraglutide’s Kp, brain was cited from the literature (Rhea et al. [2024])."}},
  "data": [
    {"compound": "CC[C@H](C)[C@H](NC(=O)[C@H](CC(C)C)NC(=O)[C@H](Cc1c[nH]c2ccccc12)NC(=O)[C@H](CCC(N)=O)NC(=O)[C@@H](NC(=O)[C@H](Cc1ccccc1)NC(=O)[C@H](C)NC(=O)[C@H](CCCCNC(=O)COCCOCCNC(=O)COCCOCCNC(=O)CC[C@H](NC(=O)CCCCCCCCCCCCCCCCCCC(=O)O)C(=O)O)NC(=O)[C@H](CCC(N)=O)NC(=O)[C@H](C)NC(=O)[C@@H](NC(=O)[C@H](CCCCN)NC(=O)[C@H](CC(=O)O)NC(=O)[C@H](CC(C)C)NC(=O)C(C)(C)NC(=O)[C@@H](NC(=O)[C@H](CO)NC(=O)[C@H](Cc1ccc(O)cc1)NC(=O)[C@H](CC(=O)O)NC(=O)[C@H](CO)NC(=O)[C@@H](NC(=O)[C@H](Cc1ccccc1)NC(=O)[C@@H](NC(=O)CNC(=O)[C@H](CCC(=O)O)NC(=O)C(C)(C)NC(=O)[C@@H](N)Cc1ccc(O)cc1)[C@@H](C)O)[C@@H](C)O)[C@@H](C)CC)[C@@H](C)CC)C(C)C)C(=O)N[C@@H](C)C(=O)NCC(=O)NCC(=O)N1CCC[C@H]1C(=O)N[C@@H](CO)C(=O)N[C@@H](CO)C(=O)NCC(=O)N[C@@H](C)C(=O)N1CCC[C@H]1C(=O)N1CCC[C@H]1C(=O)N1CCC[C@H]1C(=O)N[C@@H](CO)C(N)=O", "note": "[TZP, Tirzepatide]", "values": [
      {"measurement": "Claudin-1 expressions (mRNA, protein)", "setting": "[1]; OGD/R + 50 and 100 nM TZP vs. OGD/R, Fig. 7A, B", "result": "notably enhanced"},
      {"measurement": "Claudin-1 expressions (mRNA)", "setting": "[1]; OGD/R + TZP (100 nM) vs. OGD/R", "result": "remarkably elevated"},
      {"measurement": "Claudin-1 expressions (mRNA)", "setting": "[1]; OGD/R + sh-C/EBP-α + TZP (100 nM) vs. OGD/R + TZP", "result": "strikingly restrained"},
      {"measurement": "Behavioral toxicity", "setting": "[2]", "result": "no overt behavioral toxicity"},
      {"measurement": "TEER values", "setting": "[3]; OGD/R + 50 nM TZP, 24 h, control 191.3, OGD/R 115.3, Fig. 6B", "result": "145.3 Ω.cm²"},
      {"measurement": "TEER values", "setting": "[3]; OGD/R + 100 nM TZP, 24 h, control 191.3, OGD/R 115.3, Fig. 6B", "result": "172.9 Ω.cm²"},
      {"measurement": "TEER values", "setting": "[3]; sh-C/EBP-α experiment, OGD/R + TZP (100 nM), control 187.4, OGD/R 113.5, Fig. 9C", "result": "175.6 Ω.cm²"},
      {"measurement": "TEER values", "setting": "[3]; sh-C/EBP-α experiment, OGD/R + sh-C/EBP-α + TZP (100 nM), control 187.4, OGD/R 113.5, Fig. 9C", "result": "138.2 Ω.cm²"},
      {"measurement": "tissue level at time at 24 h", "setting": "[4]; Brain concentration of TZP", "result": "9.6 ± 1.2", "unit": "ng/g"},
      {"measurement": "level at 24 h", "setting": "[4]; Plasma concentration of TZP", "result": "0.0802 ± 0.0101", "unit": "µg/mL"}
    ]}
  ]
}
